Measured values as given in patent publication US12590066B2, “Fused-heterocyclyl-carbonohydrazonoyl dicyanide compounds and use thereof” (KOREA INSTITUTE OF SCIENCE AND TECHNOLOGY, priority 2020, dated 2026).

How the values were obtained:
[1] = tested on: Tau-BiFC cells; assay: Cell viability (stained nuclei count) in Tau-BiFC cells; format: cell-based; details: 10 μM compound, 48 hours; Forskolin-only group = 100% cell viability
Method: In order to select novel tau protein aggregation-inhibiting substances, tau-BiFC cell model, in which formation of tau oligomers in living cells is easily observed, was used. Tau-BiFC cells were aliquoted into a 384-well plate. On the next day, the cells were treated with each of the compounds prepared according to Examples 1 to 57 at concentrations of 1 μM, 3 μM, and 10 μM, together with Forskolin (at a treatment concentration of 30 μM), which is a compound inducing tau protein aggregation by activating tau phosphorylase PKA. After 48 hours, nuclei in the cells were stained using Hoechst (at a treatment concentration of 2 μg/mL), and BiFC fluorescence intensity was automatically measured using Operetta (PerkinElmer) to count stained nuclei in each well out of the entire well plate. The group treated only with Forskolin, which induces tau protein aggregation, was set to a reference point of a 100% tau protein-aggregated state, and the effects of the compounds were confirmed using the equation “BiFC fluorescence intensity due to compound synthesized according to embodiment of present invention/(fluorescence intensity of control group treated only with Forskolin inducing tau protein aggregation−fluorescence intensity of untreated control group)×100”. Furthermore, the degree of cytotoxicity induced by the newly synthesized compound was also measured based on the 100% cell viability of the group treated only with Forskolin as a reference, and the cytotoxicity value of each compound was calculated using the equation “(number of stained nuclei in group treated with compound/number of stained nuclei in group treated with Forskolin)×100”. Based on the treatment results, substances inhibiting intracellular tau protein aggregation were selected from a series of candidate groups showing a tau protein aggregation inhibition rate of 70% or more and cell viability of 100% at a compound treatment concentration of 10 μM or more. […]

[2] = molecular target: T1, CYP1A2 (Homo sapiens, UniProt P05177); assay: Inhibitory effect on CYP coenzyme activity, human liver microsomes; format: in vitro ADME; details: 10 μM compound, human liver microsomes 0.25 mg/mL, substrate phenacetin, 15 minutes
T1 construct: human liver microsomes (0.25 mg/mL); from tissue; host or cells: human liver microsomes
T1 sequence (P05177 1-516): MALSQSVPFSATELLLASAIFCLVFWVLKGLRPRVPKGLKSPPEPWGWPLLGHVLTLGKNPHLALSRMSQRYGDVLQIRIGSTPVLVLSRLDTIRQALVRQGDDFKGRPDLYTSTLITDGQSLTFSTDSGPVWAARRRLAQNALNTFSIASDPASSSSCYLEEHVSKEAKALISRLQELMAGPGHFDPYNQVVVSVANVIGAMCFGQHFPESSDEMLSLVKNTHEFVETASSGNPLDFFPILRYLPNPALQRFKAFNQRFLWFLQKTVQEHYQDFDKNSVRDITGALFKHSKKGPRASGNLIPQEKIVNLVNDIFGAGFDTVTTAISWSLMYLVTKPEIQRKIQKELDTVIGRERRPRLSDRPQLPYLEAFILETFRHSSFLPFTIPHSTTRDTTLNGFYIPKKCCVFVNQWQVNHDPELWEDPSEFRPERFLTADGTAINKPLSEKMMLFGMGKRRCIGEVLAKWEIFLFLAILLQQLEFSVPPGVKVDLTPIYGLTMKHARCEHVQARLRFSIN
Method in brief: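 Human liver microsomes (0.25 mg/mL) in 0.1 M phosphate pH 7.4 were preincubated 5 min at 37 °C with a substrate cocktail (50 μM phenacetin, 10 μM diclofenac, 100 μM S-mephenytoin, 5 μM dextromethorphan, 2.5 μM midazolam) and 10 μM compound, then run 15 min with NADPH-generating system. Metabolites quantified by LC-MS/MS (MRM); activity expressed as % of untreated control.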

Cn1ccc2ccc(NN=C(C#N)C#N)cc2c1=O [Compound 2, (2-methyl-1-oxo-1,2-dihydroisoquinolin-7-yl)carbonohydrazonoyl dicyanide]
Cell viability (% @10 μM) [1]: 57.5% | CYP1A2 coenzyme activity (%) with respect to control group not treated [2]: 43.5%

CC(C)n1ccc2ccc(NN=C(C#N)C#N)cc2c1=O [Compound 3, (2-isopropyl-1-oxo-1,2-dihydroisoquinolin-7-yl)carbonohydrazonoyl dicyanide]
Cell viability (% @10 μM) [1]: 112% | CYP1A2 coenzyme activity (%) with respect to control group not treated [2]: 50.2%

N#CC(C#N)=NNc1cccc2c(=O)[nH]ccc12 [Compound 4, (1-oxo-1,2-dihydroisoquinolin-5-yl)carbonohydrazonoyl dicyanide]
Cell viability (% @10 μM) [1]: 99.3% | CYP1A2 coenzyme activity (%) with respect to control group not treated [2]: 85.3%

Cn1ccc2c(NN=C(C#N)C#N)cccc2c1=O [Compound 5, (2-methyl-1-oxo-1,2-dihydroisoquinolin-5-yl)carbonohydrazonoyl dicyanide]
Cell viability (% @10 μM) [1]: 41.4% | CYP1A2 coenzyme activity (%) with respect to control group not treated [2]: 70.7%

CC(C)n1ccc2c(NN=C(C#N)C#N)cccc2c1=O [Compound 6, (2-isopropyl-1-oxo-1,2-dihydroisoquinolin-5-yl)carbonohydrazonoyl dicyanide]
Cell viability (% @10 μM) [1]: 118.1% | CYP1A2 coenzyme activity (%) with respect to control group not treated [2]: 68.3%

Cc1cc2c(NN=C(C#N)C#N)cccc2c(=O)n1C [Compound 7, (2,3-dimethyl-1-oxo-1,2-dihydroisoquinolin-5-yl)carbonohydrazonoyl dicyanide]
Cell viability (% @10 μM) [1]: 101.9% | CYP1A2 coenzyme activity (%) with respect to control group not treated [2]: 33.2%

Cn1c(=O)n(C)c2cc(NN=C(C#N)C#N)c(Cl)cc21 [Compound 10, (6-chloro-1,3-dimethyl-2-oxo-2,3-dihydro-1H-benzo[d]imidazol-5-yl)carbonohydrazonoyl dicyanide]
Cell viability (% @10 μM) [1]: 145.3% | CYP1A2 coenzyme activity (%) with respect to control group not treated [2]: 94.2%

Cn1c(=O)n(C)c2c(Cl)cc(NN=C(C#N)C#N)cc21 [Compound 11, (7-chloro-1,3-dimethyl-2-oxo-2,3-dihydro-1H-benzo[d]imidazol-5-yl)carbonohydrazonoyl dicyanide]
Cell viability (% @10 μM) [1]: 142.3% | CYP1A2 coenzyme activity (%) with respect to control group not treated [2]: 73.7%

Cn1c(=O)n(C)c2ncc(NN=C(C#N)C#N)cc21 [Compound 12, (1,3-dimethyl-2-oxo-2,3-dihydro-1H-imidazo[4,5-b]pyridin-6-yl)carbonohydrazonoyl dicyanide]
Cell viability (% @10 μM) [1]: 145.2% | CYP1A2 coenzyme activity (%) with respect to control group not treated [2]: 99.6%

N#CC(C#N)=NNc1ccc2[nH]c(=O)sc2c1 [Compound 13, (2-oxo-2,3-dihydrobenzo[d]thiazol-6-yl)carbonohydrazonoyl dicyanide]
Cell viability (% @10 μM) [1]: 115.8% | CYP1A2 coenzyme activity (%) with respect to control group not treated [2]: 79%

Cn1c(=O)sc2cc(NN=C(C#N)C#N)ccc21 [Compound 14, (3-methyl-2-oxo-2,3-dihydrobenzo[d]thiazol-6-yl)carbonohydrazonoyl dicyanide]
Cell viability (% @10 μM) [1]: 129.1% | CYP1A2 coenzyme activity (%) with respect to control group not treated [2]: 81.6%

N#CC(C#N)=NNc1ccc2[nH]c(=O)oc2c1 [Compound 15, (2-oxo-2,3-dihydrobenzo[d]oxazol-6-yl)carbonohydrazonoyl dicyanide]
Cell viability (% @10 μM) [1]: 127.7% | CYP1A2 coenzyme activity (%) with respect to control group not treated [2]: 87.3%

Cn1c(=O)oc2cc(NN=C(C#N)C#N)ccc21 [Compound 16, (3-methyl-2-oxo-2,3-dihydrobenzo[d]oxazol-6-yl)carbonohydrazonoyl dicyanide]
Cell viability (% @10 μM) [1]: 129.8% | CYP1A2 coenzyme activity (%) with respect to control group not treated [2]: 91.5%

Cn1c(=O)[nH]c2cc(NN=C(C#N)C#N)ccc21 [Compound 17, (1-methyl-2-oxo-2,3-dihydro-1H-benzo[d]imidazol-5-yl)carbonohydrazonoyl dicyanide]
Cell viability (% @10 μM) [1]: 94.38% | CYP1A2 coenzyme activity (%) with respect to control group not treated [2]: 32.1%

CC(C)n1c(=O)sc2cc(NN=C(C#N)C#N)ccc21 [Compound 18, (3-isopropyl-2-oxo-2,3-dihydrobenzo[d]thiazol-6-yl)carbonohydrazonoyl dicyanide]
Cell viability (% @10 μM) [1]: 110.7% | CYP1A2 coenzyme activity (%) with respect to control group not treated [2]: 81.4%

N#CC(C#N)=NNc1ccc2c(c1)sc(=O)n2C(F)F [Compound 19, (3-(difluoromethyl)-2-oxo-2,3-dihydrobenzo[d]thiazol-6-yl)carbonohydrazonoyl dicyanide]
Cell viability (% @10 μM) [1]: 125.3% | CYP1A2 coenzyme activity (%) with respect to control group not treated [2]: 52.5%

CC(C)n1c(=O)oc2cc(NN=C(C#N)C#N)ccc21 [Compound 20, (3-isopropyl-2-oxo-2,3-dihydrobenzo[d]oxazol-6-yl)carbonohydrazonoyl dicyanide]
Cell viability (% @10 μM) [1]: 106% | CYP1A2 coenzyme activity (%) with respect to control group not treated [2]: 87.3%

N#CC(C#N)=NNc1ccc2c(c1)oc(=O)n2C(F)F [Compound 21, (3-(difluoromethyl)-2-oxo-2,3-dihydrobenzo[d]oxazol-6-yl)carbonohydrazonoyl dicyanide]
Cell viability (% @10 μM) [1]: 135% | CYP1A2 coenzyme activity (%) with respect to control group not treated [2]: 79.6%

Cn1c(=O)n(C)c2cc(NN=C(C#N)C#N)ccc21 [Compound 22, (1,3-dimethyl-2-oxo-2,3-dihydro-1H-benzo[d]imidazol-5-yl)carbonohydrazonoyl dicyanide]
Cell viability (% @10 μM) [1]: 120.7% | CYP1A2 coenzyme activity (%) with respect to control group not treated [2]: 93.5%

CC(C)n1c(=O)n(C(C)C)c2cc(NN=C(C#N)C#N)ccc21 [Compound 23, (1,3-diisopropyl-2-oxo-2,3-dihydro-1H-benzo[d]imidazol-5-yl)carbonohydrazonoyl dicyanide]
Cell viability (% @10 μM) [1]: 117% | CYP1A2 coenzyme activity (%) with respect to control group not treated [2]: 83.2%

N#CC(C#N)=NNc1ccc2c(c1)n(C(F)F)c(=O)n2C(F)F [Compound 24, (1,3-bis(difluoromethyl)-2-oxo-2,3-dihydro-1H-benzo[d]imidazol-5-yl)carbonohydrazonoyl dicyanide]
Cell viability (% @10 μM) [1]: 125.1% | CYP1A2 coenzyme activity (%) with respect to control group not treated [2]: 32.8%

CC(C)n1c(=O)oc2ccc(NN=C(C#N)C#N)cc21 [Compound 29, (3-isopropyl-2-oxo-2,3-dihydrobenzo[d]oxazol-5-yl)carbonohydrazonoyl dicyanide]
Cell viability (% @10 μM) [1]: 133% | CYP1A2 coenzyme activity (%) with respect to control group not treated [2]: 97.3%

COc1cc(NN=C(C#N)C#N)cc2c1n(C)c(=O)n2C [Compound 33, (7-methoxy-1,3-dimethyl-2-oxo-2,3-dihydro-1H-benzo[d]imidazol-5-yl)carbonohydrazonoyl dicyanide]
Cell viability (% @10 μM) [1]: 114% | CYP1A2 coenzyme activity (%) with respect to control group not treated [2]: 37.8%

CC(C)n1c(=O)n(C(C)C)c2ncc(NN=C(C#N)C#N)cc21 [Compound 34, (1,3-diisopropyl-2-oxo-2,3-dihydro-1H-imidazo[4,5-b]pyridin-6-yl)carbonohydrazonoyl dicyanide]
Cell viability (% @10 μM) [1]: 120% | CYP1A2 coenzyme activity (%) with respect to control group not treated [2]: >100%

CCn1c(=O)n(C)c2ccc(NN=C(C#N)C#N)cc21 [Compound 35, (3-ethyl-1-methyl-2-oxo-2,3-dihydro-1H-benzo[d]imidazol-5-yl)carbonohydrazonoyl dicyanide]
Cell viability (% @10 μM) [1]: 130% | CYP1A2 coenzyme activity (%) with respect to control group not treated [2]: 93.1%

CC(C)n1c(=O)n(C)c2ccc(NN=C(C#N)C#N)cc21 [Compound 36, (3-isopropyl-1-methyl-2-oxo-2,3-dihydro-1H-benzo[d]imidazol-5-yl)carbonohydrazonoyl dicyanide]
Cell viability (% @10 μM) [1]: 104% | CYP1A2 coenzyme activity (%) with respect to control group not treated [2]: 93.7%
